Like-named read-outs stand apart in the source and are kept apart here.
What was measured:
[1] = system: caterpillars of the armyworm (Spodoptera frugiperda); assay: Spodoptera frugiperda spray test (SPODFR); format: in vivo; conditions: maize leaf disks; application rate 500 g/ha; after 7 days
Procedure: Spodoptera frugiperda—Spray Test (SPODFR)
(§1) Solvent: 78.0 parts by weight of acetone
(§2) • 1.5 parts by weight of dimethylformamide Emulsifier: alkylaryl polyglycol ether
(§3) To produce a suitable preparation of active compound, 1 part by weight of active compound is dissolved using the stated parts by weight of solvent and made up with water containing an emulsifier concentration of 1000 ppm until the desired concentration is attained. To produce further test concentrations, the preparation is diluted with emulsifier-containing water.
Leaf disks of maize (Zea mays) are sprayed with an active compound preparation of the desired concentration and, after drying, populated with caterpillars of the armyworm (Spodoptera frugiperda).
After 7 days, the efficacy in % is determined. 100% means that all the caterpillars have been killed; 0% means that no caterpillars have been killed.

[2] = log P determination by HPLC on reversed-phase columns (C 18), analogously to OECD Guideline 117; format: physicochemical; conditions: for logP (HCOOH): LC-MS in the acidic range, pH 2.7, 0.1% aqueous formic acid / acetonitrile; for logP (HCOOH) / logP (neutral): HPLC reversed-phase C 18; for logP (neutral): LC-MS in the neutral range, pH 7.8, 0.001 molar aqueous ammonium hydrogencarbonate / acetonitrile; for chromatographic logP: reversed-phase C18 HPLC column
Procedure, shortened: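 Reversed-phase C18 HPLC per OECD 117 with LC-MS detection and a linear 10→95% acetonitrile gradient. Acidic log P run at pH 2.7 with 0.1% formic acid in both eluents. Neutral log P run at pH 7.8 with 0.001 M aqueous ammonium hydrogencarbonate.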

[3] = system: southern root-knot nematode (Meloidogyne incognita); assay: Meloidogyne incognita test (MELGIN); format: in vivo; conditions: lettuce in sand; application rate 20 ppm; after 14 days
Procedure: Meloidogvne incognita test (MELGIN)
Solvent: 125.0 parts by weight of acetone
To produce a suitable preparation of active compound, 1 part by weight of active compound is mixed with the stated amount of solvent and the concentrate is diluted with water to the desired concentration.
Vessels are filled with sand, active compound solution, an egg/larvae suspension of the southern root-knot nematode (Meloidogyne incognita) and lettuce seeds. The lettuce seeds germinate and the plants develop. The galls develop on the roots.
After 14 days, the nematicidal efficacy in % is determined by the formation of galls. 100% means that no galls were found; 0% means that the number of galls on the treated plants corresponds to the untreated control.

[4] = system: larvae of the mustard beetle (Phaedon cochleariae); assay: Phaedon cochleariae spray test (PHAECO); format: in vivo; conditions: Chinese cabbage leaf disks; application rate 500 g/ha; after 7 days
Procedure: Phaedon cochleariae—Spray Test (PHAECO)
as §1, §2, §3
After 7 days, the efficacy in % is determined. 100% means that all the beetle larvae have been killed; 0% means that no beetle larvae have been killed.

[5] = system: greenhouse red spider mite (Tetranychus urticae); assay: Tetranychus urticae spray test, OP-resistant (TETRUR), bean leaf disks; format: in vivo; conditions: bean leaf disks, application rate 500 g/ha, after 6 days; for pest or weed control at 500 g/ha: Tetranychus urticae, foliar, 144 h, read-out: efficacy in %
Procedure, shortened: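 Bean leaf disks carrying all stages of OP-resistant Tetranychus urticae sprayed with compound in acetone/dimethylformamide diluted in emulsifier water. Kill assessed after 6 days as % efficacy, 100% meaning all mites dead.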

[6] = system: cattle ticks (Boophilus microplus); assay: Boophilus microplus injection test (BOOPMI inj); format: in vivo; conditions: injection into the abdomen; application rate 20 μg/animal; assessed after 7 days
Procedure: Boophilus microplus—Injection Test (BOOPMI inj)
(§4) Solvent: dimethyl sulfoxide
To produce a suitable preparation of active compound, 10 mg of active compound are mixed with 0.5 ml of solvent and the concentrate is diluted with solvent to the desired concentration.
1 μl of the active compound solution is injected into the abdomen of 5 engorged adult female cattle ticks (Boophilus microplus). The animals are transferred into dishes and kept in a climate-controlled room.
(§5) Efficacy is assessed after 7 days by laying of fertile eggs. Eggs which are not visibly fertile are stored in a climate-controlled cabinet until the larvae hatch after about 42 days. An efficacy of 100% means that none of the ticks has laid any fertile eggs; 0% means that all the eggs are fertile.

[7] = system: cattle ticks (Boophilus microplus) Parkhurst strain, SP-resistant; assay: Boophilus microplus dip test (BOOPMI Dip); format: in vivo; conditions: engorged adult female ticks dipped; application rate 100 ppm; assessed after 7 days
Procedure: Boophilus microplus—Dip Test (BOOPMI Dip)
Test animals: cattle ticks (Boophilus microplus) Parkhurst strain, SP-resistant
as §4
10 mg of active compound are dissolved in 0.5 ml of dimethyl sulfoxide. To produce a suitable formulation, the active compound solution is diluted with water to the concentration desired in each case.
This active compound preparation is pipetted into tubes. 8-10 engorged adult female cattle ticks (Boophilus microplus) are transferred into a further tube with holes. The tube is immersed into the active compound preparation, and all the ticks are completely wetted. After the liquid has run out, the ticks are transferred on filter disks into plastic dishes and stored in a climate-controlled room.
as §5

[8] = system: green peach aphid (Myzus persicae); assay: Myzus persicae spray test (MYZUPE); format: in vivo; conditions: Chinese cabbage leaf disks; application rate 500 g/ha; after 6 days
Procedure: Myzus persicae—Spray Test (MYZUPE)
Solvent: 78 parts by weight of acetone
as §2, §3
Disks of Chinese cabbage leaves (Brassica pekinensis) infested by all stages of the green peach aphid (Myzus persicae) are sprayed with an active compound preparation of the desired concentration.
After 6 days, the efficacy in % is determined. 100% means that all the aphids have been killed; 0% means that none of the aphids have been killed.

[9] = system: Amblyomma hebraeum; assay: Amblyomma hebraeum test (AMBYHE), tick nymph immersion; format: in vivo; conditions: tick nymphs immersed for one minute; application rate 100 ppm; after 42 days
Procedure: Amblyomma hebaraeum Test (AMBYHE)
as §4
To produce a suitable preparation of active compound, 10 mg of active compound are mixed with 0.5 ml of dimethyl sulfoxide, and the concentrate is diluted with water to the desired concentration.
Tick nymphs (Amblyomma hebraeum) are placed into perforated plastic beakers and immersed in the desired concentration for one minute. The ticks are transferred on filter paper into a Petri dish and stored in a climate-controlled cabinet.
After 42 days, the kill in % is determined. 100% means that all of the ticks have been killed; 0% means that none of the ticks have been killed.

[10] = acidic range, pH 2.7, 0.1% aqueous formic acid and acetonitrile, read-out: log P[a] / log P(HCOOH)
[11] = neutral range, pH 7.8, 0.001 molar aqueous ammonium hydrogencarbonate and acetonitrile, read-out: log P[b] / log P(neutral)

Compound | logP (HCOOH) [2] | logP (neutral) [2] | efficacy in % [4] | efficacy in % [5] | also measured
Cc1cc(F)c(-n2[nH]c(=O)n(-c3cccc(Cl)c3)c2=O)cc1SCC(F)(F)F [Example 157] | 3.31 | 1.33 | – | – | efficacy in % [1]: 100%
Cc1ccc(-n2c(=O)n(C)c(=O)n2CC2CC2)cc1SCC(F)(F)F [Example 52] | 3.34 | 3.29 | 100% | 100% | nematicidal efficacy in % (formation of galls) [3]: 100%
Cc1cc(F)c(N2C(=O)C(=O)N(C3CCCCC3)C2=O)cc1[S+]([O-])CC(F)(F)F (centres unmarked) [Example 186, 1-Cyclohexyl-3-{2-fluoro-4-methyl-5-[(2,2,2-trifluoroethyl)sulfinyl]phenyl}imidazolidin-2,4,5-trion] | – | – | 100% | – | chromatographic logP [2, 10]: 3.36; chromatographic logP [2, 11]: 3.33; pest or weed control at 500 g/ha [5]: 100%
Cc1cc(F)c(N2C(=O)C(=O)N(C3CCCCC3)C2=O)cc1SCC(F)(F)F [Example 185, 1-Cyclohexyl-3-{2-fluoro-4-methyl-5-[(2,2,2-trifluoroethyl)sulfanyl]phenyl}imidazolidine-2,4,5-trione] | – | – | 100% | – | chromatographic logP [2, 10]: 4.32; chromatographic logP [2, 11]: 4.27; pest or weed control at 500 g/ha [5]: 90%
Cc1ccc(-n2c(=O)n(C(C)C)c(=O)n2C)cc1[S+]([O-])CC(F)(F)F (centres unmarked) [Example 141] | 2.27 | 2.24 | – | 90% | efficacy (laying of fertile eggs) [6]: 100%; efficacy (laying of fertile eggs) [7]: 90%; efficacy in % [8]: 100%
Cc1cc(F)c(-n2[nH]c(=O)n(C3CC3)c2=O)cc1SCC(F)(F)F [Example 207] | 1.57 | −0.23 | – | 90% | efficacy in % [1]: 83%
Cc1cc(F)c(N2CCN(C)C2=O)cc1SCC(F)(F)F [Example 198] | 2.79 | 2.75 | 83% | 100% | –
Cc1cc(F)c(-n2c(=O)n(C(C)C)c(=O)n2C)cc1SCC(F)(F)F [Example 91] | 3.35 | 3.28 | – | 100% | efficacy (laying of fertile eggs) [6]: 100%; kill in % [9]: 100%; efficacy (laying of fertile eggs) [7]: 100%
Cc1cc(F)c(N2CC(=O)N(C)C2=O)cc1SCC(F)(F)F [Example 211] | 2.66 | – | 83% | 100% | efficacy (laying of fertile eggs) [6]: 100%
Cc1cc(F)c(N2C(=O)OC(C)C2=O)cc1[S+]([O-])CC(F)(F)F (centres unmarked) [Example 206] | 2.08 | – | – | – | efficacy in % [8]: 100%
Cc1cc(F)c(N2C(=O)CN(C)C2=O)cc1SCC(F)(F)F [Example 200] | 2.42 | 2.33 | 100% | 90% | efficacy in % [1]: 100%
Cc1cc(F)c(N2C(=O)C(=O)N(CC(F)(F)F)C2=S)cc1[S+]([O-])CC(F)(F)F (centres unmarked) [Example 190] | 3.03 | – | 100% | 90% | –
